Data from paper PMC11726016 (Cancer Discovery, 2024).

Columns and labels:
[1] = test system: endogenous MTAP WT and MTAP-deleted cancer cell lines; assay: Viability in a panel of endogenous MTAP WT and MTAP-deleted cancer cells; type: cell-based, human; details: 6 days
[2] = test system: DOHH-2 tumors; assay: DOHH-2 tumor study, AM-9747 vs LLY-283; type: in vivo, mouse; details: LLY-283 30 mg/kg, AM-9747 100 mg/kg PO QD
[3] = test system: bone marrow progenitors and circulating blood cells; assay: Bone marrow progenitor populations and circulating blood cells; type: in vivo, mouse; details: DOHH-2 study; LLY-283 30 mg/kg, AM-9747 100 mg/kg PO QD
[4] = test system: SDMA and γH2AX in bone marrow, blood and DOHH-2 tumor; assay: Pharmacodynamics and MOA in vivo assay; details: DOHH-2 study, Day 11; LLY-283 30 mg/kg, AM-9747 100 mg/kg PO QD

Nc1ncnc2c1ccn2[C@@H]1O[C@H]([C@H](O)c2ccccc2)[C@@H](O)[C@H]1O [LLY-283]
relation of MTAP status to sensitivity in the cell panel [1]: MTAP status did not track closely with sensitivity | tumor-free mice [2]: 2/10 | circulating blood cells (RBC, reticulocytes, platelets) [3]: highly substantial reductions in red blood cells (RBC), reticulocytes, and platelets | megakaryocytic and erythroid progenitors (MEP) population in bone marrow [3]: substantial reduction | Blood SDMA decrease [4]: 79% | Bone marrow SDMA decrease [4]: 71% | Tumor SDMA decrease [4]: 21%
